In patent publication US9033962B2, “Photodynamic therapy including light pretreatment” (Case Western Reserve University, priority 2010, dated 2015):

Columns and labels:
[1] = human skin 1-2 hours after Pc 4 applied, no light pretreatment; cited from earlier work
[2] = Confocal imaging of skin sections from psoriasis patients with lesions treated with Pc 4 versus Pc 4 plus red light; format: in vivo, human; conditions: for location of Pc 4 fluorescence in skin: psoriasis lesions
Procedure: FIG. 2 includes 4 sets of images obtained from confocal imaging of skin sections from two psoriasis patients with lesions to which Pc 4 (0.1 mg/ml) versus Pc 4 (0.1 mg/ml) plus 100 J/cm2 of red light (675 nm) was applied.
(§1) When treating skin, the area of skin can be covered with an opaque dressing during the interval of time between the first and second photoirradiation to prevent further activation of the photosensitizer by ambient light. While not intending to be bound by theory, the first photoirradiation may increase the ability of the photosensitizing agent to penetrate tissue as a result of breaking up aggregates of the photosensitizing agent and/or by disrupting the tissue barrier as a result of the release of reactive oxygen species. Accordingly, this first photoirradiation can also be referred to as the disruptive photoirradiation, or light pretreatment. The ability of light pretreatment to facilitate the penetration of photosensitizer to lower levels of skin is illustrated by FIGS. 1 and 2.
A variety of methods are available to determine the amount of energy and/or time necessary for an effective amount of the photosensitizer to reach the desired tissue level, such as a lower level of the skin, under the conditions being used. Such methods can be referred to as photosensitizer localization assays. For example, a biopsy can be obtained after administration of the photosensitizer from which the photosensitizer is chemically extracted and quantified using conventional analytic techniques such as UV spectrophotometry. The photosensitizer (e.g., Pc 4) can also be identified from biopsy samples using confocal imaging of the fluorescence of the photosensitizer either with or without the use of additional labels targeted at specific intracellular components (e.g., DAPI, mitotracker). Such techniques can be helpful to determine therapeutically effective doses, and also to evaluate non-responding subjects for possible poor photosensitizer permeation through the skin or other complications.

[3] = Pc 4 fluorescence after topical application on mouse ear skin, with or without an initial light dose; format: in vivo; conditions: Pc 4 0.1 mg/mL topical on mouse ear skin, initial small light dose 50 J/cm2, versus 15 minutes of topical application without light
Source text: FIG. 1 is a pair of photographs showing that photoirradiation of mouse ear skin to which Pc 4 had been topically applied facilitates Pc 4 penetration into the skin.
as §1

[4] = used topically on skin lesions; cited from earlier work
[5] = Time interval for delivery of photosensitizer through skin, with or without first photoirradiation; format: in vivo; conditions: after a first photoirradiation
Source text: Once the first photoirradiation has been delivered to the area of tissue, a sufficient interval of time should be allowed to pass for an effective amount of the photosensitizer to further penetrate the tissue. In the case of skin tissue, a sufficient interval of time is preferably provided to allow the photosensitizer to reach the lower levels of skin such as the basal epidermis and/or the papillary dermis, which is the upper layer of the dermis immediately beneath the epidermis. The particular layer of skin targeted can vary depending on the disease being treated. Examples of sufficient intervals include 1 hour, 30 minutes, 10 minutes, 5 minutes, or any other interval within this range. In addition to providing sufficient time for the photosensitizer to penetrate the skin to the desired level, care should also be taken to avoid providing too much time, which can result in passage of significant amounts of the photosensitizer beyond the intended site.

SMILES: CN(C)CCC[Si](C)(C)O[Si]1(O)n2c3c4ccccc4c2N=C2N=C(N=c4c5ccccc5c(n41)=NC1=NC(=N3)c3ccccc31)c1ccccc12 (stereo not shown) [Pc 4, HOSiPcOSi(CH3)2(CH2)3N(CH3)2]
- absorption in the epidermis [1]: significant absorption
- absorption in the papillary dermis [1]: minimal to no absorption
- location of Pc 4 fluorescence in skin ([2]; Pc 4 0.1 mg/ml alone, after more than one hour of application): limited to the stratum corneum
- location of Pc 4 fluorescence in skin ([2]; Pc 4 0.1 mg/ml for 1 hour followed by 100 J/cm2 red light (675 nm)): not only in the stratum corneum but also in the epidermis and upper dermis
- Pc 4 fluorescence in the cells within the epidermis and upper dermis (higher magnification) ([2]; Pc 4 + light (100 J/cm2, 675 nm)): there is indeed Pc 4 fluorescence
- Pc 4 fluorescence in the cells within the epidermis and upper dermis (higher magnification) ([2]; Pc 4 alone): not observed
- absorption of Pc 4 into the epidermis and upper dermis ([2]; initial dose of light on psoriatic lesions in humans to which Pc 4 has been applied): facilitates the absorption
- depth of Pc 4 in skin (Pc 4 fluorescence) [3]: enhanced
- safety profile [4]: excellent safety profile
- time interval needed for delivery through skin [5]: fifteen
